Reference: PubChem BioAssay AID2382 (Broad Institute, 2010)
Records with an inconclusive call do not appear. Calls of active or inactive are those of the source.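 The calls were made as follows: active = IC50 at or below a set limit past the top dose tested; inconclusive = flat curve with 30 to 70% signal change, or a failed fit; inactive = IC50 above that set limit.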

Test system: NIH3T3-HGL HSF1-luciferase reporter, MG132-induced, 8 h
Experiment: inhibition of MG132-induced HSE-luciferase signal, confirmation, cell-based, NIH3T3, luminescence, dose retest (AID 2382)

| SMILES | IC50 |
| --- | --- |
| C#CCOCCOCCOCCNc1nc(N2CCN(C(=O)[C@H](CCC(=O)O)n3cc(C(N)Cc4ccc(O)cc4)nn3)CC2)nc(N2CCN(C(=O)[C@H](Cc3ccc(O)cc3)n3cc(C(N)[C@H](C)CC)nn3)CC2)n1 (stereo partly drawn) | > 19.5 µM (inactive) |
| O=C(NN=C1CCC(c2ccccc2)CC1)c1cc2c(s1)CCCC2 (stereo not drawn) | > 19.5 µM (inactive) |
| Cc1cc(=O)[nH]c(NN=C2CCC(C(C)(C)C)CC2)n1 (stereo not drawn) | > 19.5 µM (inactive) |
